Data from patent US6720342B2, “Heterocyclic compounds and their preparation and use” (Novo Nordisk A/S, priority 1996, dated 2004).
Counter-ions that a name gives are not always drawn.

Experiments:
[1] = biological target: muscarinic acetylcholine receptors; assay: Inhibition of specific binding of 3H-Oxotremorine-M (3H-Oxo) to rat cortex membranes; conditions: rat cortex homogenate, 1.0 nM 3H-Oxotremorine, 30 min at 25° C.
Source text: The pharmacological properties of the compounds of the invention can be illustrated by determining their capability to inhibit the specific binding of ^3H-Oxotremorine-M (^3H-Oxo). Birdsdall N. J. M., Hulme E. C., and Burgen A. S. V. (1980). “The Character of Muscarinic Receptors in Different Regions of the Rat Brain”. Proc. Roy. Soc. London (Series B) 207, 1.
^3H-Oxo labels muscarinic receptor in the CNS (with a preference for agonist domains of the receptors). Three different sites are labelled by ^3H-Oxo. […] Using the present experimental conditions only the high and medium affinity sites are determined.
The inhibitory effects of compounds on ^3H-Oxo binding reflects the affinity for muscarinic acetylcholine receptors.
(§1) All preparations are performed at 0-4° C. unless otherwise indicated. Fresh cortex (0.1-1 g) from male Wistar rats (150-250 g) is homogenized for 5-10 s in 10 ml 20 mM Hepes pH: 7.4, with an Ultra-Turrax homogenizer. The homogenizer is rinsed with 10 ml of buffer and the combined suspension centrifuged for 15 min. at 40,000×g. The pellet is washed three times with buffer. In each step the pellet is homogenized as before in 2×10 ml of buffer and centrifuged for 10 min. at 40,000×g.
The final pellet is homogenized in 20 mM Hepes pH: 7.4 (100 ml per g of original tissue) and used for binding assay. Aliquots of 0.5 ml is added 25 μl of test solution and 25 μl of ^3H-Oxotremorine (1.0 nM, final concentration) mixed and incubated for 30 min. at 25° C. Non-specific binding is determined in triplicate using arecoline (1 μg/ml, final concentration) as the test substance. After incubation samples are added 5 ml of ice-cold buffer and poured directly onto Whatman GF/C glass fiber filters under suction and immediately washed 2 times with 5 ml of ice-cold buffer. The amount of radioactivity on the filters are determined by conventional liquid scintillation counting. Specific binding is total binding minus non specific binding.
Test substances are dissolved in 10 ml water (if necessary heated on a steambath for less than 5 min.) at a concentration of 2.2 mg/ml. 25-75% inhibition of specific binding must be obtained before calculation of IC50.
The test value will be given as IC50 (the concentration (nM) of the test substance which inhibits the specific binding of ^3H-Oxo by 50%).
(§2) IC50=(applied test substance concentration)×(Cx/Co−Cx)nM
(§3) where Co is specific binding in control assays and Cx is the specific binding in the test assay. (The calculations assume normal mass-action kinetics).

[2] = biological target: T1, muscarinic receptors (M1-site, pirenzepine sensitive site) (Rattus norvegicus, UniProt P08482); assay: Inhibition of 3H-PRZ (pirenzepine, [N-methyl-3H]) binding to rat cerebral cortex membranes; conditions: 1.0 nM 3H-Pirenzepine, 60 min at 20° C.
T1 construct: Fresh cortex (0.1-1 g) from male Wistar rats (150-200 g) is homogenized; from tissue; host or cells: rat (male Wistar) cerebral cortex membranes
T1 sequence (P08482 1-460): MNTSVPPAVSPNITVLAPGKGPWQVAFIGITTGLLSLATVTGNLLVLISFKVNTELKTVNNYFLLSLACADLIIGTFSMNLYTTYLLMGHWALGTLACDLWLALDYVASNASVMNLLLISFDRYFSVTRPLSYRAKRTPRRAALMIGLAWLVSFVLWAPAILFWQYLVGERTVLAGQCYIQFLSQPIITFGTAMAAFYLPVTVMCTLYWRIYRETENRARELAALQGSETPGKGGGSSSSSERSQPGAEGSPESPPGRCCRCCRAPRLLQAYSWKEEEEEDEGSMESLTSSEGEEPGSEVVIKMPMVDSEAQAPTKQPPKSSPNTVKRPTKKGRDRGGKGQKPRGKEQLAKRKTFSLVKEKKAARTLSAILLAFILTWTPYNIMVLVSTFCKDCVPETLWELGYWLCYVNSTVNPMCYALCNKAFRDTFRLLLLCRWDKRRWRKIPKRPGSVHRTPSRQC
Description: Furthermore the pharmacological properties of the compounds of the invention can also be illustrated by determining their capability to inhibit ^3H-PRZ (pirenzepine, [N-methyl-^3H]) binding to rat cerebral cortex membranes. Pirenzepine binds selectively to subtype of muscarinic receptors. Historically the type is named the M1-site, whereas pirenzepine sensitive site would be more appropriate. Although selective for M1-sites pirenzepine also interact with M2-sites.
as §1, with “rats (150-200” for “rats (150-250”, “5-10 s.” for “5-10 s”, “with 2×10” for “with 10”, “15 min” for “15 min.”, “in 3×10” for “in 2×10”, “10 min” for “10 min.”
The final pellet is homogenized in 20 mM Hepes pH: 7.4 (100 ml per g of original tissue) and used for binding assay. Aliquots of 0.5 ml is added 20 μl of test solution and 25 μl of ^3H-Pirenzepine (1.0 nM, final conc.), mixed and incubated for 60 min at 20° C. Non-specific binding is determined in triplicate using atropine (1 μg/ml, final conc.) as the test substance. After incubation samples are added 5 ml of ice-cold buffer and poured directly onto Whatman GF/C glass fiber filters under suction and immediately washed 2 times with 5 ml of ice-cold buffer. The amount of radioactivity on the filters are determined by conventional liquid scintillation counting. Specific binding is total binding minus non-specific binding.
Test substances are dissolved in 10 ml water, at a concentration of 0.22 mg/ml. 25-75% inhibition of specific binding must be obtained before calculation of IC50.
The test value will be given as IC50 (the concentration (nM) of the test substance which inhibits the specific binding of ^3H-PRZ by 50%).
as §2, §3

SMILES	IC50 [1] [nM]	IC50 [2] [nM]
CCCCSc1nsnc1OC1CN2CCC1C2 (stereo not drawn) [Compound 1, Endo 3-(3-butylthio-1,2,5-thiadiazol-4-yloxy)-1-azabicyclo[2.2.1]heptane, oxalate]	1.6	0.14
CCCSc1nsnc1OC1CN2CCC1C2 (stereo not drawn) [Compound 2, Endo 3-(3-propylthio-1,2,5-thiadiazol-4-yloxy)-1-azabicyclo[2.2.1]heptane, oxalate]	1.4	4.2
Fc1ccc(C#CCOc2nsnc2OC2CN3CCC2C3)cc1 (stereo not drawn) [Compound 4, Endo 3-(3-[3-(4-fluorophenyl)-2-propynyl-1-oxy]-1,2,5-thiadiazol-4-yloxy)-1-azabicyclo[2.2.1]heptane, oxalate]	7.9	8.3
C(#Cc1ccccc1)COc1nsnc1OC1CN2CCC1C2 (stereo not drawn) [Compound 5, Endo 3-(3-[3-phenyl-2-propynyl-1-oxy]-1,2,5-thiadiazol-4-yloxy)-1-azabicyclo[2.2.1]heptane, oxalate]	10	14
COc1cccc(C#CCOc2nsnc2OC2CN3CCC2C3)c1 (stereo not drawn) [Compound 6, Endo 3-(3-[3-(3-methoxyphenyl)-2-propynyl-1-oxy]-1,2,5-thiadiazol-4-yloxy)-1-azabicyclo[2.2.1]heptane, oxalate]	–	17
CC(C)=CCOc1nsnc1OC1CN2CCC1C2 (stereo not drawn) [Compound 7, Endo 3-(3-[3-methyl-2-butenyl-1-oxy]-1,2,5-thiadiazol-4-yloxy)-1-azabicyclo[2.2.1]heptane, oxalate]	10	24
C(CC1CC1)Oc1nsnc1OC1CN2CCC1C2 (stereo not drawn) [Compound 8, Endo 3-(3-[2-cyclopropylethyl-1-oxy]-1,2,5-thiadiazol-4-yloxy)-1-azabicyclo[2.2.1]heptane, oxalate]	4.9	9.8
Fc1ccc(COc2nsnc2OC2CN3CCC2C3)cc1 (stereo not drawn) [Compound 9, Endo 3-(3-[4-fluorobenzyloxy]-1,2,5-thiadiazol-4-yloxy)-1-azabicyclo-[2.2.1]heptane, oxalate]	25	30
CC=CCOc1nsnc1OC1CN2CCC1C2 (stereo not drawn) [Compound 10, Endo 3-(3-[2-butenyl-1-oxy]-1,2,5-thiadiazol-4-yloxy)-1-azabicyclo[2.2.1]heptane, oxalate]	5.3	20
CC#CCOc1nsnc1OC1CN2CCC1C2 (stereo not drawn) [Compound 11, Endo 3-(3-[2-butynyl-1-oxy]-1,2,5-thiadiazol-4-yloxy)-1-azabicyclo[2.2.1]heptane, oxalate]	2.1	23
CSCCOc1nsnc1OC1CN2CCC1C2 (stereo not drawn) [Compound 12, Endo 3-(3-methylthioethoxy-1,2,5-thiadiazol-4-yloxy)-1-azabicyclo-[2.2.1]heptane, oxalate]	3.7	29
COCCOc1nsnc1OC1CN2CCC1C2 (stereo not drawn) [Compound 13, Endo 3-(3-methoxyethoxy-1,2,5-thiadiazol-4-yloxy)-1-azabicyclo[2.2.1]heptane, oxalate]	4.3	44
FC(F)(F)Oc1ccc(COc2nsnc2OC2CN3CCC2C3)cc1 (stereo not drawn) [Compound 14, Endo 3-(3-[4-trifluoromethoxybenzyloxy]-1,2,5-thiadiazol-4-yloxy)-1-azabicyclo[2.2.1]heptane, oxalate]	49	32
FC(F)(F)CCCOc1nsnc1OC1CN2CCC1C2 (stereo not drawn) [Compound 15, Endo 3-(3-[4,4,4-trifluorobutyl-1-oxy]-1,2,5-thiadiazol-4-yloxy)-1-azabicyclo[2.2.1]heptane, oxalate]	18	14
Fc1cc(C(F)(F)F)ccc1COc1nsnc1OC1CN2CCC1C2 (stereo not drawn) [Compound 16, Endo 3-(3-[2-fluoro-4-(trifluoromethyl)-benzyloxy]-1,2,5-thiadiazol-4-yloxy)-1-azabicyclo[2.2.1]heptane, oxalate]	148	129
COc1cccc(C#CC(C)Oc2nsnc2OC2CN3CCC2C3)c1 (stereo not drawn) [Compound 17, Endo 3-(3-[4-(3-methoxyphenyl)-3-butyn-2-yloxy]-1,2,5-thiadiazol-4-yloxy)-1-azabicyclo[2.2.1]heptane, oxalate]	72	48
Clc1ccc(C#CCOc2nsnc2OC2CN3CCC2C3)cc1 (stereo not drawn) [Compound 18, Endo 3-(3-[3-(4-chlorophenyl)-2-propynyl-1-oxy]-1,2,5-thiadiazol-4-yloxy)-1-azabicyclo[2.2.1]heptane, oxalate]	79	12
CCC(C#Cc1cccc(OC)c1)Oc1nsnc1OC1CN2CCC1C2 (stereo not drawn) [Compound 19, Endo 3-(3-[1-(3-methoxyphenyl)-1-pentyn-3-yloxy]-1,2,5-thiadiazol-4-yloxy)-1-azabicyclo[2.2.1]heptane, oxalate]	126	53
FC(F)(F)c1cccc(C#CCOc2nsnc2OC2CN3CCC2C3)c1 (stereo not drawn) [Compound 20, Endo 3-(3-(3-(3-trifluoromethylphenyl)-2-propynyl-1-oxy)-1,2,5-thiadiazol-4-yloxy)-1-azabicyclo[2.2.1]heptane, oxalate]	–	11
Fc1cccc(C#CCOc2nsnc2OC2CN3CCC2C3)c1 (stereo not drawn) [Compound 28, Endo 3-(3-(3-(3-fluorophenyl)-2-propyn-1-yloxy)-1,2,5-thiadiazol-4-yloxy-1-azabicyclo[2.2.1]heptane, oxalate]	5.5	–
FC(F)(F)CCCSc1nsnc1OC1CN2CCC1C2 (stereo not drawn) [Compound 30, Endo 3-(3-(4,4,4-trifluorobutylthio)-1,2,5-thiadiazol-4-yloxy)-1-azabicyclo-[2.2.1]heptane, oxalate]	–	3.4
N#Cc1ccc(CSc2nsnc2OC2CN3CCC2C3)cc1 (stereo not drawn) [Compound 31, Endo 3-(3-[4-cyanobenzylthio]-1,2,5-thiadiazol-4-yloxy)-1-azabicyclo-[2.2.1]heptane, oxalate]	–	23
FCCSc1nsnc1OC1CN2CCC1C2 (stereo not drawn) [Compound 34, Endo 3-(3-[2-fluoroethyl-1-thio]-1,2,5-thiadiazol-4-yloxy)-1-azabicyclo-[2.2.1]heptane, oxalate]	–	31
C1CC(COc2nsnc2OC2CN3CCC2C3)C1 (stereo not drawn) [Compound 41, Endo 3-(3-cyclobutylmethyloxy-1,2,5-thiadiazol-4-yloxy)-1-azabicyclo-[2.2.1]heptane, oxalate]	–	9.2
